Key:
Format in all cases: in vivo
[1] = system: cotton; assay: Pouch assay; root and shoot length of cotton; conditions: 0 ppm PESA salt; for Shoot Length: untreated 4.7; for Root Length: untreated 7.7
Method: (§1) Seeds were placed in germination pouches consisting of germination paper hydrated with sterile water that was an insert in a gas-permeable 16×14 cm plastic pouch (CYG Pouch; Mega International, St. Paul, Minn.). In these examples, in pouch solution evaluation, PESA sodium salt or other active ingredients were added to the sterile water in the pouch. The pouches were arranged in a completely randomized block design in growth racks and placed in 19-liter polycarbonate food storage containers (Rubbermaid Commercial Products, Winchester, Va.). The sealed containers were held in an upright growth cabinet maintained at 25 C with a 12 hour light: 12 hour dark photoperiod. After 6 days, the containers were removed from the growth cabinet, and the lengths of the roots and shoot were measured.

[2] = system: rice cv. Cheniere; assay: Pouch assay, PESA salt and herbicide added to the pouch solution; root and shoot length
Method: Alternatively, PESA salt and herbicides may be added separately to the sterile water in the growth pouch.
as §1

[3] = system: rice cv. Nipponbare; assay: Hydroponic assay; total root length and shoot length; conditions: for Shoot Length / Total Root Length: 0 ppm PESA salt
Method: Where hydroponically-grown rice was used in studies, the seeds were pre-incubated in water at 30 C for 2 days to stimulate germination. Three seeds were placed on a float and cultivated hydroponically in a test tube (25 mm×200 mm), which contained 50 ml of Kimura B nutrient solution at ⅛th strength supplemented with herbicides and PESA sodium salt. The exposure of the roots to the light was prevented by wrapping the tubes with aluminum foil. The rice seedlings were incubated in a growth cabinet at 25 C under continuous light for 14 days, and the total root length and shoot length were measured. Total root length (cm) was the root length/plant determined following scanning with WinRhizo software (Regent Instruments INC, Toronto, Canada).

[4] = system: rice cv. Cheniere; assay: Emergence of seed-treated rice seeded onto soil previously treated with herbicide; conditions: no seed treatment (Control), untreated 90
Excerpt: Seed was sieved with a screen of mesh size appropriate to remove broken seeds and small trash. Cracked or otherwise damaged seeds were removed. The seed was well mixed, and 50 g samples were weighed into small plastic trays. […] A fungicide (Maxim XL; Syngenta Agricultural Products, Greensboro, N.C.), a polymeric binder (CF-Clear; Becker-Underwood, Ames, Iowa), and a colorant (Color Coat Red; Becker-Underwood, Ames, Iowa) were also included in the slurry at label rates. A small aliquot of this slurry was applied to the seed using the Hege 11 coater (Wintersteiger, Salt Lake City, Utah) with a six-inch bowl at a slurry rate of 30 ounces per 100 lbs of seed. The slurry was deposited drop-wise on the spinning disk atomizer using a syringe.
Rice cv. […] It was then seeded onto soil which was previously sprayed with the pendimethalin herbicide Prowl H2O® (BASF Agricultural Products, Research Triangle Park, N.C.).
After seed treatment, rice was seeded into soil previously treated with the dithiopyr herbicide Dimension®.
Rice seed treated with PESA was tested for its ability to protect rice from the herbicide Roundup WeatherMax® (glyphosate). After seed treatment, rice was seeded into soil previously treated with the Roundup WeatherMax®.

[5] = 10 ppm dithiopyr, treatment none (Control), 30 ppm PESA salt, 10 ppm GA3 or both, untreated 3.9
[6] = 10 ppm dithiopyr, treatment none (Control), 30 ppm PESA salt, 10 ppm GA3 or both, untreated 9.5
[7] = 50 ppm pendimethalin, treatment none (Control), 30 ppm PESA salt, 10 ppm GA3 or both, untreated 3.9
[8] = 50 ppm pendimethalin, treatment none (Control), 30 ppm PESA salt, 10 ppm GA3 or both, untreated 9.7
[9] = pendimethalin (Table 4, 50 ppm)

## COc1nc(C)nc(NC(=O)NS(=O)(=O)c2ccccc2Cl)n1 [Chlorsulfuron, chlorsulfuron, reference compound]
[1]; 1 ppm chlorsulfuron
  Shoot Length: 2.3 cm
  Root Length: 2.1 cm
[1]; 10 ppm chlorsulfuron
  Shoot Length: 1.5 cm
  Root Length: 1.8 cm
[1]; 100 ppm chlorsulfuron
  Shoot Length: 1.7 cm
  Root Length: 1.9 cm
[2]; 10 ppm chlorsulfuron, 0 ppm PESA salt, untreated 4.8
  Shoot Length: 0.9 cm
[2]; 10 ppm chlorsulfuron, 0 ppm PESA salt, untreated 11.6
  Root Length: 0.6 cm
[2]; 100 ppm chlorsulfuron, 0 ppm PESA salt, untreated 4.8
  Shoot Length: 0.7 cm
[2]; 100 ppm chlorsulfuron, 0 ppm PESA salt, untreated 11.6
  Root Length: 0.3 cm

## C#CCOC(=O)[C@@H](C)Oc1ccc(Oc2ncc(Cl)cc2F)cc1 [Clodinafop-propargyl, clodinafop-propargyl, reference compound]
[3]; 0.3 ppm clodinafop-propargyl, untreated 10.6
  Shoot Length: 10.2 cm
[3]; 0.3 ppm clodinafop-propargyl, untreated 52.1
  Total Root Length: 45.3 cm
[3]; 1 ppm clodinafop-propargyl, untreated 10.6
  Shoot Length: 10.9 cm
[3]; 1 ppm clodinafop-propargyl, untreated 52.1
  Total Root Length: 11.5 cm
[3]; 3 ppm clodinafop-propargyl
  root length reduced by: 91%
[3]; 3 ppm clodinafop-propargyl, untreated 10.6
  Shoot Length: 7.5 cm
[3]; 3 ppm clodinafop-propargyl, untreated 52.1
  Total Root Length: 4.7 cm

## COc1c(Cl)ccc(Cl)c1C(=O)O [Dicamba, dicamba, reference compound]
[3]; 0.01 ppm dicamba, untreated 11.4
  Shoot Length: 10.6 cm
[3]; 0.01 ppm dicamba, untreated 44.9
  Total Root Length: 21.3 cm
[3]; 0.1 ppm dicamba
  root length reduced by: 87%
  shoot length reduced by: 61%
[3]; 0.1 ppm dicamba, untreated 11.4
  Shoot Length: 4.5 cm
[3]; 0.1 ppm dicamba, untreated 44.9
  Total Root Length: 6.0 cm
[3]; 1 ppm dicamba, untreated 11.4
  Shoot Length: 3.8 cm
[3]; 1 ppm dicamba, untreated 44.9
  Total Root Length: 0.0 cm

## CSC(=O)c1c(C(F)F)nc(C(F)(F)F)c(C(=O)SC)c1CC(C)C [Dithiopyr, dithiopyr, reference compound]
[2]; 1 ppm dithiopyr, 0 ppm PESA salt, untreated 4.0
  Shoot Length: 4.3 cm
[2]; 1 ppm dithiopyr, 0 ppm PESA salt, untreated 9.5
  Root Length: 10.0 cm
[2]; 10 ppm dithiopyr
  root length reduced by: 30%
[2]; 10 ppm dithiopyr, 0 ppm PESA salt, untreated 4.0
  Shoot Length: 3.5 cm
[2]; 10 ppm dithiopyr, 0 ppm PESA salt, untreated 9.5
  Root Length: 6.7 cm
[2]; [5]
  Shoot Length: 3.0 cm
[2]; [6]
  Root Length: 4.1 cm
[2]; 100 ppm dithiopyr, 0 ppm PESA salt, untreated 4.0
  Shoot Length: 1.2 cm
[2]; 100 ppm dithiopyr, 0 ppm PESA salt, untreated 9.5
  Root Length: 0.4 cm

## C#CCN1C(=O)COc2cc(F)c(N3C(=O)C4=C(CCCC4)C3=O)cc21 [Flumioxazin, flumioxazin, reference compound]
[3]; 0.1 ppm flumioxazin, untreated 10.6
  Shoot Length: 10.7 cm
[3]; 0.1 ppm flumioxazin, untreated 52.1
  Total Root Length: 41.5 cm
[3]; 0.3 ppm flumioxazin, untreated 10.6
  Shoot Length: 11.0 cm
[3]; 0.3 ppm flumioxazin, untreated 52.1
  Total Root Length: 64.1 cm
[3]; 1 ppm flumioxazin
  root length reduced by: 28%
  shoot length reduced by: 64%
[3]; 1 ppm flumioxazin, untreated 10.6
  Shoot Length: 3.8 cm
[3]; 1 ppm flumioxazin, untreated 52.1
  Total Root Length: 14.5 cm
[3]; 3 ppm flumioxazin, untreated 10.6
  Shoot Length: 5.9 cm
[3]; 3 ppm flumioxazin, untreated 52.1
  Total Root Length: 15.7 cm

## C=C1C[C@]23C[C@@]1(O)CC[C@H]2[C@@]12C=C[C@H](O)[C@@](C)(C(=O)O1)[C@H]2[C@@H]3C(=O)O [GA3, gibberellic acid, reference compound]
[2]; 0 ppm pendimethalin, treatment 30 ppm PESA salt, 10 ppm GA3 or both, untreated 3.9
  Shoot Length: 7.7 cm
[2]; 0 ppm pendimethalin, treatment 30 ppm PESA salt, 10 ppm GA3 or both, untreated 9.7
  Root Length: 10.8 cm
[2]; [5]
  Shoot Length: 5.6 cm
[2]; [6]
  Root Length: 4.7 cm
[2]; [7]
  Shoot Length: 1.5 cm
[2]; [8]
  Root Length: 2.7 cm
[2]; in the growth medium with pendimethalin (Table 4)
  protection of roots and shoots from pendimethalin: only marginally effective at protecting the roots and shoots from pendimethalin
[2]; no dithiopyr (Control), treatment 30 ppm PESA salt, 10 ppm GA3 or both, untreated 3.9
  Shoot Length: 7.0 cm
[2]; no dithiopyr (Control), treatment 30 ppm PESA salt, 10 ppm GA3 or both, untreated 9.5
  Root Length: 10.7 cm

## O=C(O)CNCP(=O)(O)O [Glyphosate, glyphosate, reference compound]
[4]; glyphosate 23 μg/cm2 (Roundup)
  Percent Emergence at 9 days after planting: 72%
[4]; glyphosate 90 μg/cm2 (Roundup)
  Percent Emergence at 9 days after planting: 12%

## COc1cc(OC)nc(NC(=O)NS(=O)(=O)c2c(Cl)nc3ccccn23)n1 [Imazosulfuron, imazosulfuron, reference compound]
[3]; 0.01 ppm imazosulfuron, untreated 11.4
  Shoot Length: 12.6 cm
[3]; 0.01 ppm imazosulfuron, untreated 44.9
  Total Root Length: 41.4 cm
[3]; 0.1 ppm imazosulfuron
  root length reduced by: 49%
[3]; 0.1 ppm imazosulfuron, untreated 11.4
  Shoot Length: 8.6 cm
[3]; 0.1 ppm imazosulfuron, untreated 44.9
  Total Root Length: 23.1 cm
[3]; 1 ppm imazosulfuron
  shoot length reduced by: 86%
[3]; 1 ppm imazosulfuron, untreated 11.4
  Shoot Length: 1.6 cm
[3]; 1 ppm imazosulfuron, untreated 44.9
  Total Root Length: 4.9 cm

## CCc1cccc(C)c1N(C(=O)CCl)C(C)COC (stereo not drawn) [Metolachlor, metolachlor, reference compound]
[2]; 1 ppm metolachlor, 0 ppm PESA salt, untreated 3.7
  Shoot Length: 3.6 cm
[2]; 1 ppm metolachlor, 0 ppm PESA salt, untreated 9.3
  Root Length: 8.2 cm
[2]; 10 ppm metolachlor
  decrease in root length: 60%
[2]; 10 ppm metolachlor, 0 ppm PESA salt, untreated 3.7
  Shoot Length: 0.9 cm
[2]; 10 ppm metolachlor, 0 ppm PESA salt, untreated 9.3
  Root Length: 3.7 cm
[2]; 100 ppm metolachlor, 0 ppm PESA salt, untreated 3.7
  Shoot Length: 0.6 cm
[2]; 100 ppm metolachlor, 0 ppm PESA salt, untreated 9.3
  Root Length: 1.6 cm

## CCC(CC)Nc1c([N+](=O)[O-])cc(C)c(C)c1[N+](=O)[O-] [Pendimethalin, pendimethalin, reference compound]
[2]; 10 ppm pendimethalin, 0 ppm PESA salt, untreated 3.4
  Shoot Length: 3.4 cm
[2]; 10 ppm pendimethalin, 0 ppm PESA salt, untreated 8.5
  Root Length: 8.3 cm
[2]; [7]
  Shoot Length: 1.3 cm
[2]; [8]
  Root Length: 2.9 cm
[2]; 100 ppm pendimethalin
  root length reduced by: 70%
[2]; 100 ppm pendimethalin, 0 ppm PESA salt, untreated 3.4
  Shoot Length: 1.0 cm
[2]; 100 ppm pendimethalin, 0 ppm PESA salt, untreated 8.5
  Root Length: 2.5 cm
[2]; 500 ppm pendimethalin, 0 ppm PESA salt, untreated 3.4
  Shoot Length: 0.5 cm
[2]; 500 ppm pendimethalin, 0 ppm PESA salt, untreated 8.5
  Root Length: 0.5 cm
[2]; [9]
  root length decreased by: 75%
  shoot length decreased by: 67%

From patent publication US8420574B2, “Plant growth enhancement with combinations of PESA and herbicides” (Valent BioSciences Corporation, priority 2009, dated 2013)
